Experiment [1] can be described thus: DRUGMATRIX: GABAA, Flunitrazepam, Central radioligand binding (ligand: [3H] Flunitrazepam). It counts as cell membranes, Rattus norvegicus, Wistar, Brain, Membrane. Particulars: Not Active = under 50% inhibition at 10 µM.
The next experiment addresses T1, Neutrophil elastase (Homo sapiens, UniProt P08246).
T1 sequence (P08246 whole entry): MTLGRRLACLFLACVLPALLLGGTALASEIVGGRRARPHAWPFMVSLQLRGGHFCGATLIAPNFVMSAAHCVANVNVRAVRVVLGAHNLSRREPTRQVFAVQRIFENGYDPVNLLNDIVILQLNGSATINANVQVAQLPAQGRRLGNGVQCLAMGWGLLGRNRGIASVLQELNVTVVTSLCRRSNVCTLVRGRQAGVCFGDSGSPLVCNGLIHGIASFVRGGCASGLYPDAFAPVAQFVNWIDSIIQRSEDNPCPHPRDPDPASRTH
It counts as tissue-based.

Experiment [2] addresses cGMP-specific 3',5'-cyclic phosphodiesterase (Homo sapiens, UniProt O76074). The experiment is described as follows: DRUGMATRIX: Phosphodiesterase PDE5 enzyme inhibition (substrate: [3H]cGMP + cGMP). The format is tissue-based, Platelet. Particulars: platelet; Not Active = under 50% inhibition at 10 µM.
The target in experiment [3] is Kappa-type opioid receptor (Homo sapiens, UniProt P41145). Description: DRUGMATRIX: Opiate kappa (OP2, KOP) radioligand binding (ligand: [3H] Diprenorphine). The format is cell membranes, HEK293, Membrane. Particulars: Not Active = under 50% inhibition at 10 µM.
Experiment [4] has as its target T2, Neuropeptide Y receptor type 1 (Homo sapiens, UniProt P25929). Further: in other assays of this panel Not Active means under 50% inhibition at 10 µM.
T2 sequence (P25929 whole entry): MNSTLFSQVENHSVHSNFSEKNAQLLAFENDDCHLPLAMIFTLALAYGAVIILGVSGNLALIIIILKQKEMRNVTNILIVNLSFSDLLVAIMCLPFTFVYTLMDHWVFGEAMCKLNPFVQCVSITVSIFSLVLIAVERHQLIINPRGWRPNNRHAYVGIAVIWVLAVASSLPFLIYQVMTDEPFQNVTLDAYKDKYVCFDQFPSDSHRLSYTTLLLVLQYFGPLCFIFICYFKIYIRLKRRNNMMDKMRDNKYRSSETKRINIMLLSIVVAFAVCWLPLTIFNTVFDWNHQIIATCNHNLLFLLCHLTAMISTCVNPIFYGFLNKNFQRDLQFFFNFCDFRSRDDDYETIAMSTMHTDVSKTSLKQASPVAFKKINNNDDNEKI
The format is cell membranes, Membrane. To be noted: sk-n-mc.

The target of experiment [5] is Mitogen-activated protein kinase 3 (Homo sapiens, UniProt P27361). The experiment is described as follows: DRUGMATRIX: Protein Serine/Threonine Kinase, ERK1 enzyme inhibition (substrate: Myelin Basic Protein). On the set-up: species or system Escherichia coli. To be noted: Not Active = under 50% inhibition at 10 µM.
A further experiment addresses Mu-type opioid receptor (Homo sapiens, UniProt P35372). The experiment is described as follows: DRUGMATRIX: Opiate mu (OP3, MOP) radioligand binding (ligand: [3H] Diprenorphine). Particulars: Not Active = under 50% inhibition at 10 µM. The format is cell membranes, CHO-K1, Membrane.

Sequence of Mu-type opioid receptor (P35372 whole entry): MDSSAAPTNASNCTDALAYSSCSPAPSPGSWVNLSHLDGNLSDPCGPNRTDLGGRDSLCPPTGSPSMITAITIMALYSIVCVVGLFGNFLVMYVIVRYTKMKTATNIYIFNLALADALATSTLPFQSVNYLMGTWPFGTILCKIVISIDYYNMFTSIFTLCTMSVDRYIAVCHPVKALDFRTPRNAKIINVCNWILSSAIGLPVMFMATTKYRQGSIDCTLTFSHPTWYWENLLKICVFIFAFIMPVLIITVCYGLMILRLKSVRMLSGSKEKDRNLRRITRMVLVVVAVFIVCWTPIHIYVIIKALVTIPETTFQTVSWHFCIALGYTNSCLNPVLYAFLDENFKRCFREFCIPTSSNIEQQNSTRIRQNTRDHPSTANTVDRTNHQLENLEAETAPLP
Sequence of Mitogen-activated protein kinase 3 (P27361 whole entry): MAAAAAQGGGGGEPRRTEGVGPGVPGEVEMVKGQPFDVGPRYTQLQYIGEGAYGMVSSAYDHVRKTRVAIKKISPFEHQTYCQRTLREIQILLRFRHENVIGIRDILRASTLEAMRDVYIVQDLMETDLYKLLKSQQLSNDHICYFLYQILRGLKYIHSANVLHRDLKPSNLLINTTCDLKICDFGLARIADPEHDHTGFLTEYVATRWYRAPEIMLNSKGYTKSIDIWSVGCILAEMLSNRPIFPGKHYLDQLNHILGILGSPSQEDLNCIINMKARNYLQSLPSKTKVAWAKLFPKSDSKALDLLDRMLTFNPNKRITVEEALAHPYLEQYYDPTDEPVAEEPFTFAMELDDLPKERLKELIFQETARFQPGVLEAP
Sequence of Kappa-type opioid receptor (P41145 whole entry): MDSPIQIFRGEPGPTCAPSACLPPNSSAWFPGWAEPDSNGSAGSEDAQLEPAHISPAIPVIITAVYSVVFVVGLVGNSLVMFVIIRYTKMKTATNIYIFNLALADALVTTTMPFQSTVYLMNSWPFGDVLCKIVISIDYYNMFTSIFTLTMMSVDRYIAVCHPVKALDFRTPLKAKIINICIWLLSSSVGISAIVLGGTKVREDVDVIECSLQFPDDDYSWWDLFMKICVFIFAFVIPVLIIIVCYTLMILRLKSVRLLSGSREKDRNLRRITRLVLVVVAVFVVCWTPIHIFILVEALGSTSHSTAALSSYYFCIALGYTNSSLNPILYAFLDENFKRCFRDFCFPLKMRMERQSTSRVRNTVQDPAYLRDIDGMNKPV

A word on the IC50: it is the concentration that gives 50% inhibition. One may read the Ki as a measure of affinity in units of concentration, obtained from inhibition or displacement. Low values mean a stronger hold on the target, high ones a looser hold on the target. For `CC[C@H]1OC(=O)[C@H](C)[C@@H](O[C@H]2C[C@@](C)(OC)[C@@H](O)[C@H](C)O2)[C@H](C)[C@@H](O[C@@H]2O[C@H](C)C[C@H](N(C)C)[C@H]2O)[C@](C)(O)C[C@@H](C)C(=O)[C@H](C)[C@@H](O)[C@]1(C)O` [ERYTHROMYCIN], the IC50 entry (in experiment [1]; on Neutrophil elastase; in experiment [2]; in experiment [3] (hek293); in experiment [4]; in experiment [5]) was “Not Active” in each case. In addition, at Mu-type opioid receptor (cho-k1), the IC50 entry was “Not Active”. The Ki entry in experiment [1] is given as “Not Active”.

Take `C[N+](C)(C)CCOP(=O)([O-])OC[C@H](O)CO`: the IC50 result (in experiment [1]; at Neutrophil elastase; in experiment [2]; in experiment [3] (hek293); in experiment [4]; in experiment [5]) was “Not Active” each time. Moreover, the IC50 result on Mu-type opioid receptor (cho-k1) is reported as “Not Active”. The inhibition constant (Ki) entry in experiment [1] is on record as “Not Active”.

On to `Clc1cc(Cl)c(OCC#CI)cc1Cl` [HALOPROGIN], for which the half-inhibitory concentration (IC50) entry in experiment [1] is “Not Active”; at Neutrophil elastase it was “Not Active”; in experiment [2], “Not Active”; in experiment [3] (read-out: IC50), 1.15 µM; in experiment [4] it was “Not Active”; in experiment [5] it was “Not Active”. For the same compound, the IC50 entry at Mu-type opioid receptor (cho-k1) was “Not Active”. Also, the Ki entry in experiment [1] is “Not Active”; in experiment [3], 0.459 µM.

On to `Cc1cc(C(C)(C)C)c(O)c(C)c1CC1=NCCN1` [OXYMETAZOLINE], for which the IC50 result (in experiment [1]; on Neutrophil elastase; in experiment [2]; in experiment [3] (hek293); in experiment [4]; in experiment [5]) was “Not Active” throughout. On Mu-type opioid receptor (cho-k1), the IC50 result was “Not Active”. Besides, the inhibition constant (Ki) entry in experiment [1] is reported as “Not Active”.

With `C[N+](C)(C)CCOC(N)=O.[Cl-]` [CARBACHOL], the IC50 result (in experiment [1]; on Neutrophil elastase; in experiment [2]; in experiment [3] (hek293); in experiment [4]; in experiment [5]) was “Not Active” each time. The IC50 result at Mu-type opioid receptor (cho-k1) is listed as “Not Active”. Also, the inhibition constant (Ki) entry in experiment [1] was “Not Active”.

As for `CCN(CCO)CCCC(C)Nc1ccnc2cc(Cl)ccc12` (stereo unspecified) [HYDROXYCHLOROQUINE], the half-maximal inhibitory concentration (IC50) entry (in experiment [1]; against Neutrophil elastase; in experiment [2]; in experiment [3] (hek293); in experiment [4]; in experiment [5]) was “Not Active” throughout. The IC50 entry on Mu-type opioid receptor (cho-k1) is “Not Active”. For the same compound, the Ki result in experiment [1] is on record as “Not Active”.

As to `O=C1c2ccccc2C(=O)C1c1ccccc1` [PHENINDIONE], the IC50 entry (in experiment [1]; against Neutrophil elastase; in experiment [2]; in experiment [3] (hek293); in experiment [4]; in experiment [5]) was “Not Active” each time. Moreover, the IC50 entry at Mu-type opioid receptor (cho-k1) is on record as “Not Active”. The inhibition constant (Ki) result in experiment [1] is reported as “Not Active”.

`NC(N)=Nc1nc(CSCCC(N)=NS(N)(=O)=O)cs1` [FAMOTIDINE]: the IC50 entry (in experiment [1]; at Neutrophil elastase; in experiment [2]; in experiment [3] (hek293); in experiment [4]; in experiment [5]) was “Not Active” in each case. For the same compound, the IC50 result at Mu-type opioid receptor (cho-k1) is on record as “Not Active”. The Ki result in experiment [1] is on record as “Not Active”.

Consider `Cc1ccnc2c1NC(=O)c1cccnc1N2C1CC1` [NEVIRAPINE], for which the 50% inhibitory concentration (IC50) entry (in experiment [1]; on Neutrophil elastase; in experiment [2]; in experiment [3] (hek293); in experiment [4]; in experiment [5]) was “Not Active” each time. For the same compound, the 50% inhibitory concentration (IC50) result at Mu-type opioid receptor (cho-k1) was “Not Active”. The Ki entry in experiment [1] was “Not Active”.

Turning to `CO[C@H]1O[C@@H]2O[C@@]3(C)CC[C@H]4[C@H](C)CC[C@@H]([C@H]1C)[C@@]24OO3`, the concentration for half-maximal inhibition (IC50) entry (in experiment [1]; against Neutrophil elastase; in experiment [2]; in experiment [3] (hek293); in experiment [4]; in experiment [5]) was “Not Active” throughout. Also, the IC50 result on Mu-type opioid receptor (cho-k1) was “Not Active”. Also, in experiment [1], the inhibition constant (Ki) result is “Not Active”.

Consider `CN(CCOc1ccc(C[C@H](Nc2ccccc2C(=O)c2ccccc2)C(=O)O)cc1)c1ccccn1`, for which the IC50 result (in experiment [1]; at Neutrophil elastase; in experiment [2]; in experiment [3] (hek293); in experiment [4]; in experiment [5]) was “Not Active” throughout. Also, the IC50 entry on Mu-type opioid receptor (cho-k1) is recorded as “Not Active”. Moreover, the Ki result in experiment [1] is on record as “Not Active”.

Turning to `c1ccc2sc(SSc3nc4ccccc4s3)nc2c1` [BENZOTHIAZYL DISULFIDE], the IC50 entry is “Not Active” in experiment [1]; “Not Active” at Neutrophil elastase; “Not Active” in experiment [2]; 1.24 µM in experiment [3] (read-out: IC50); “Not Active” in experiment [4]; “Not Active” in experiment [5]. Also, the IC50 on Mu-type opioid receptor (read-out: IC50) stood at 3.11 µM. Besides, the Ki result in experiment [1] was “Not Active”; in experiment [3], 0.497 µM; at Mu-type opioid receptor it was 1.26 µM.

For the compound `NS(=O)(=O)c1cc(C(=O)O)c(NCc2ccco2)cc1Cl` [FUROSEMIDE], the IC50 entry (in experiment [1]; on Neutrophil elastase; in experiment [2]; in experiment [3] (hek293); in experiment [4]; in experiment [5]) was “Not Active” each time. In addition, on Mu-type opioid receptor (cho-k1), the IC50 result is reported as “Not Active”. The Ki entry in experiment [1] is reported as “Not Active”.

`COc1ccc(C[C@H](N)C(=O)N[C@H]2[C@@H](O)[C@H](n3cnc4c(N(C)C)ncnc43)O[C@@H]2CO)cc1` [PUROMYCIN]: the IC50 result (in experiment [1]; against Neutrophil elastase; in experiment [2]; in experiment [3] (hek293); in experiment [4]; in experiment [5]) was “Not Active” throughout. In addition, the IC50 entry at Mu-type opioid receptor (cho-k1) is reported as “Not Active”. In experiment [1], the Ki result was “Not Active”.

With `O=c1[nH]c2ccccc2c2ccccc12`, the IC50 entry (in experiment [1]; against Neutrophil elastase; in experiment [2]; in experiment [3] (hek293); in experiment [4]; in experiment [5]) was “Not Active” each time. Moreover, the 50% inhibitory concentration (IC50) result on Mu-type opioid receptor (cho-k1) was “Not Active”. In experiment [1], the Ki entry was “Not Active”.

On to `CC12CCC(CC1)C(C)(C)O2` [EUCALYPTOL], for which the IC50 entry (in experiment [1]; on Neutrophil elastase; in experiment [2]; in experiment [3] (hek293); in experiment [4]; in experiment [5]) was “Not Active” throughout. In addition, at Mu-type opioid receptor (cho-k1), the IC50 entry is recorded as “Not Active”. Besides, the Ki result in experiment [1] was “Not Active”.
